Laboratory results: patent US20080312261A1, “4- (4-Bromo-2-Fluoroanilino) -6- Methoxy-7- (1-Methylpiperidin-4-Ylmethoxy) Quinazoline Monohydrate” (priority 2005, published 2008)
Where two headings read alike, the source gives them in different places.

Columns and labels:
[1] = Dynamic Vapour Sorption (DVS) analysis; type: physicochemical; conditions: for kinetic stability: on the DVS timescale
Experimental: Analytical Instrument: Surface Measurements Systems Dynamic Vapour Sorption Analyser, calibrated with a saturated salt solution, such as sodium chloride.
About 5 mg of material contained in a quartz holder at a specified temperature was subjected to humidified nitrogen at a flow rate of 200 ml/minute of nitrogen at the following relative humidities (RH): 0, 20, 40, 60, 80, 95, 80, 60, 40, 20, 0% RH in duplicate.
The weight of the material at a particular relative humidity was constantly monitored using an in-situ balance until it was stable according to a weight criteria of 0.002% weight change per minute averaged over 10 minutes. If the weight was still changing then it stayed at a particular relative humidity until the weight was stable (up to a maximum time of 12 hours).

[2] = system: human umbilical vein endothelial cells (HUVEC); conditions: as disclosed in WO 01/32651, cited from earlier work
CaLu-6 tumour xenografts = conditions: 50 mg/kg, orally once daily; CaLu-6 xenografts in mice; p<0.001 (Mann-Whitney Rank Sum Test); cited from earlier work
[3] = system: femoral epiphyseal growth plates; conditions: 100 mg/kg/day in female rats, 14 days oral; p<0.001 (one-tailed Students' t-test); cited from earlier work

## COc1cc2c(Nc3ccc(Br)cc3F)ncnc2cc1OCC1CCN(C)CC1 [ZD6474 monohydrate, 4-(4-bromo-2-fluoroanilino)-6-methoxy-7-(1-methylpiperidin-4-ylmethoxy)quinazoline]
[1]; 0% relative humidity at 25° C., once surface moisture has been removed
  rate of weight loss on storage: extremely slow
[1]; 0% relative humidity at 40° C.
  rate of weight loss on storage: surprisingly slow
[1]; 25° C.
  hygroscopicity by DVS: non-hygroscopic
[1]; 25° C. and 0% relative humidity
  conversion to the anhydrous form of ZD6474 during drying: less than 5%
[1]
  kinetic stability: kinetically stable

## COc1cc2c(Nc3ccc(Br)cc3F)ncnc2cc1OCC1CCN(C)CC1 [ZD6474 anhydrous, 4-(4-bromo-2-fluoroanilino)-6-methoxy-7-(1-methylpiperidin-4-ylmethoxy)quinazoline]
[1]; 25° C.
  hygroscopicity by DVS: non-hygroscopic
[1]; at 95% relative humidity, 25° C.
  water absorbed: 0.63 % weight/weight
[1]
  kinetic stability: kinetically stable

## COc1cc2c(Nc3ccc(Br)cc3F)ncnc2cc1OCC1CCN(C)CC1 [ZD6474, 4-(4-bromo-2-fluoroanilino)-6-methoxy-7-(1-methylpiperidin-4-ylmethoxy)quinazoline]
[2]; EGF-stimulated HUVEC proliferation, read-out: EGF IC50
  IC50: 0.17 µM
[2]; VEGF-stimulated HUVEC proliferation, read-out: VEGF IC50
  IC50: 0.06 µM
[2]; basal HUVEC proliferation, read-out: Basal IC50
  IC50: > 3 µM
CaLu-6 tumour xenografts
  inhibition of tumour growth: 78%
[3]
  increase in epiphyseal growth plate hypertrophy: 75%
